# From paper PMC12331786, “Component characterization of Smilax glabra Roxb., and its inhibitory activity against Helicobacter pylori through targeted suppression of its secreted urease” (Frontiers in Cellular and Infection Microbiology, 2025)
# Like-named read-outs stand apart in the source and are kept apart here.
# Experiments:
# jack bean urease (JBU) [1] = molecular target: T1, jack bean urease (JBU) (Canavalia ensiformis, UniProt P07374); assay: biochemical; assay type: biochemical
# T1 construct: purchased Sigma Aldrich
# Text: Campylobacter agar medium was purchased from Thermo Fisher Scientific. Acetylhydroxamic acid (AHA), jack bean urease (JBU, type III with specific activity 40.3 U/mg solid) and urea were obtained from Sigma Aldrich. Boric acid (BA) and sodium fluoride (NaF) were purchased from Maclin (Shanghai, China). Dithiothreitol (DTT) and L-cysteine (L-cys) were obtained from Solaibao (Beijing, China). Glutathione (GSH) was obtained from Meilun (Dalian, China). HEPES (Amresco >99%) was from BioFroxx. All chemicals and reagents were of analytic purity.
# (§1) The protein concentration of HPU was tested utilizing BCA protein detection kit. Standard urease test mixture consists of 150 mM urea in HEPES buffer (20 mM). HPU solution of varying concentrations was mixed with 150 mM urea as the substrate in a HEPES buffer (20 mM), and then reacted at 37 °C for 20 min. Urease vitality was assessed based on ammonia levels generated during the reaction. Ultimately, residual urease activity was measured by modified Berthelot (phenol hypochlorite) at 595 nm. This experiment was performed three times in parallel.
# (§2) Test drug solution with equal volume and different concentration was mixed with urease and incubated in a 96-well plate at 37°C for 20 min. AHA was used as the positive control, while urease with urea (no depressor) served as the negative control. Moreover, urea solution (150 mM) was admixed and coincubated at ambient temperature for 20 min. Residual urease activity was measured via using the modified Berthelot method. The percentage of residual activity (RA%) was calculated as (A^sample - A^blank)/(A^negative control - A^blank)×100%, where A^blank represents the background absorbance without urease. Calculating the half-maximal inhibitory concentration (IC50) of the depressor to assess the impact of the test drug towards enzyme activity. Each experiment was conducted in triplicate for validation.
# H. pylori urease (HPU) [2] = molecular target: T2, H. pylori urease (HPU) (Helicobacter pylori, UniProt P69996); assay: biochemical; assay type: biochemical, H. pylori strain ATCC 43504
# T2 construct: The resulting HPU preparation represents a crude enzyme extract; endogenous in cells; host or cells: H. pylori strain ATCC 43504 (crude enzyme extract, method of Matsubara et al. 2003)
# Procedure: H. pylori was inoculated in Campylobacter agar and grown on Columbia agar with appropriate bovine serum albumin at 37°C, 98% humidity, and low aerobic conditions (5% O2, 10% CO2, and 85% N2) for 72 hours. Three days later, H. pylori was collected by scraping and then suspended in phosphate buffered saline (PBS). Besides, the H. pylori concentration was calibrated to 1×10^8 CFU/mL by turbidimetric method. Standard HPU was extracted from H. pylori strain ATCC 43504 following the approach detailed by [Matsubara et al. (2003)]. The resulting HPU preparation represents a crude enzyme extract, which has been widely adopted for initial inhibitor screening studies ([Li et al., 2018]; [Tan et al., 2017]; [Yu et al., 2015]). All inhibition assays included appropriate controls (enzyme blanks and solvent controls) to ensure specific detection of urease activity.
# as §1, §2
# [3] = system: H. pylori strains (ATCC 43504, NCTC 26695, ICDC 111001); assay: Minimal inhibitory concentration assay (agar dilution method); assay type: cell-based; details: Helicobacter pylori, H. pylori strain ICDC 111001
# H. pylori urease (HPU) [4] = molecular target: T2, H. pylori urease (HPU); assay: biochemical; assay type: biochemical, H. pylori strain ATCC 43504; remark: listed apart in the source
# Procedure: Residual urease activity was determined by pre-incubating test drug, urease mixture with a series of urea concentrations. Michaelis constant (KM ) and maximum velocity (vmax ) values are obtained from the Lineweaver-Burk plots of 1/v and 1/urea by plotting the reciprocal reaction velocity and substrate concentration. Variation characteristics of urease kinetic parameters KM and vmax were analyzed by adding different concentrations of test products to determine the type of inhibiting effect on HPU. Each sample was performed in triplicate.
# jack bean urease (JBU) [5] = molecular target: T1, jack bean urease (JBU); assay: biochemical; assay type: biochemical; remark: listed apart in the source
# T1 sequence (P07374 whole entry, looked up): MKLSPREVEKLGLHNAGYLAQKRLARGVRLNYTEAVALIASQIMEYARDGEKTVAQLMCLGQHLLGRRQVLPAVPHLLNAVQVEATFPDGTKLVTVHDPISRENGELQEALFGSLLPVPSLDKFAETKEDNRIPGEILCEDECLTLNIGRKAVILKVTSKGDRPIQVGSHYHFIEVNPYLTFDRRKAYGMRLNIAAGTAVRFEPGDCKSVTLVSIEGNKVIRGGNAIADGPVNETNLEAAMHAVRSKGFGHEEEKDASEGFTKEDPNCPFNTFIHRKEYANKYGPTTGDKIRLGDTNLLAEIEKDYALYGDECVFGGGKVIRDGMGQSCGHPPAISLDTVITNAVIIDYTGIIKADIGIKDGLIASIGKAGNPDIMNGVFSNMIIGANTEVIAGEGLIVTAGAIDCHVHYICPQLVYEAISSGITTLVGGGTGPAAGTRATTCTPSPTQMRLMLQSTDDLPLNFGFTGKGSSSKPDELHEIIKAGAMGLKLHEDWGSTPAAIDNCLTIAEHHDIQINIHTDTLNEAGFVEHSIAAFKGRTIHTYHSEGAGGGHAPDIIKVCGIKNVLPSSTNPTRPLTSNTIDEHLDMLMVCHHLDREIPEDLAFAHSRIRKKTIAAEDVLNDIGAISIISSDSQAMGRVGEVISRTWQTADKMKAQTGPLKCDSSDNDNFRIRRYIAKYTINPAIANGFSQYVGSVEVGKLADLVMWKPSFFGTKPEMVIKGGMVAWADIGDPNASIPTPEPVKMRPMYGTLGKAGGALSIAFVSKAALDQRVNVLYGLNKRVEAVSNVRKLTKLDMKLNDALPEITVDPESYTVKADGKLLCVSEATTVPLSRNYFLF
# T2 sequence (P14916 whole entry): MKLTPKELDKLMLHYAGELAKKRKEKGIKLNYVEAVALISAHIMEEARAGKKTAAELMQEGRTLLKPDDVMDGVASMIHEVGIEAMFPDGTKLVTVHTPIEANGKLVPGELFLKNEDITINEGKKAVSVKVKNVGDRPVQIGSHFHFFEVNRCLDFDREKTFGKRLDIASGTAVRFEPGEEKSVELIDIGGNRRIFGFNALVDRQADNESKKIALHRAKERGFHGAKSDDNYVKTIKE
# T2 sequence (P69996 whole entry): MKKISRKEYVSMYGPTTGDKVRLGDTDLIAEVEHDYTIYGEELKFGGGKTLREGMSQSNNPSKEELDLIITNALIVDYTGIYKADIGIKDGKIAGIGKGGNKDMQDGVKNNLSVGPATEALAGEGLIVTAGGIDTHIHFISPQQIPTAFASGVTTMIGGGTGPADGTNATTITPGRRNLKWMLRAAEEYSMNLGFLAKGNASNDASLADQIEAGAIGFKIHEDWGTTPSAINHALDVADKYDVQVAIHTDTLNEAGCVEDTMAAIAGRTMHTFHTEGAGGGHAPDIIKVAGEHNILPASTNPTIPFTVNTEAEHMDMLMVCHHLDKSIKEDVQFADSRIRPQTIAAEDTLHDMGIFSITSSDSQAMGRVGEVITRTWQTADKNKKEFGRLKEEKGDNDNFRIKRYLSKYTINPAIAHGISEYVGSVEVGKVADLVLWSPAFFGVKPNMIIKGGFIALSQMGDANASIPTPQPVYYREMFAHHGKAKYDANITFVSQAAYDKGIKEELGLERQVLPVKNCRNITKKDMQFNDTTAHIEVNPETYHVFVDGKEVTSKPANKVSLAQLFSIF
smiles,measurement,setting,value
"CC(=O)NO [AHA, Acetylhydroxamic acid, reference compound]",IC50,"jack bean urease (JBU) [1]; JBU, positive control",1.56 ± 0.10 µg/mL
same,IC50,"H. pylori urease (HPU) [2]; HPU, positive control",4.93 ± 0.11 µg/mL
C[C@@H]1O[C@@H](O[C@H]2C(=O)c3c(O)cc(O)cc3O[C@@H]2c2ccc(O)cc2)[C@H](O)[C@H](O)[C@H]1O [engeletin],IC50,jack bean urease (JBU) [1],6.67 ± 0.01 mM
same,IC50,H. pylori urease (HPU) [2],5.89 ± 0.01 mM
Cc1ncc([N+](=O)[O-])n1CCO [Metronidazole],MIC,[3],2 µg/mL
same,MIC,[3]; pH 7.2,2 µg/mL
C[C@@H]1O[C@@H](O[C@H]2C(=O)c3c(O)cc(O)cc3O[C@@H]2c2ccc(O)c(O)c2)[C@H](O)[C@H](O)[C@H]1O [astilbin],Ki,H. pylori urease (HPU) [4],870 ± 10 µM
same,Kis,H. pylori urease (HPU) [4]; HPU,0.87 ± 0.01 mM
same,Inhibition type,"H. pylori urease (HPU) [4]; HPU, Lineweaver-Burk analysis",non-competitive
same,IC50,jack bean urease (JBU) [1],2.22 ± 0.02 mM
same,Ki,jack bean urease (JBU) [5],200 ± 10 µM
same,Kis,jack bean urease (JBU) [5]; JBU,1.17 ± 0.10 mM
same,Inhibition type,"jack bean urease (JBU) [5]; JBU, Lineweaver-Burk analysis",mixed
same,IC50,H. pylori urease (HPU) [2],1.47 ± 0.01 mM
same,Strength of urease inhibition relative to engeletin,"H. pylori urease (HPU) [2]; urease, HPU/JBU not given",more than three times as strongly
